Several values for one entry are separate records, joined by “and”; a condition that tells them apart may be missing. Equal values may be shown once.
Details: Crystal; for mass density: 295.1 K, 101.33 kPa, pellet size and mass; for vapor or sublimation pressure: Calculated from knudsen effusion weight loss

Nc1ccc2[nH]ncc2c1 [5-aminoindazole]
Details | mass density [kg/m3] | vapor or sublimation pressure
– | 1400 | –
358.12 K | – | 8.43e-05 kPa and 8.3e-05 kPa
360.18 K | – | 0.000101 kPa and 0.0001064 kPa and 0.000103 kPa
362.16 K | – | 0.0001305 kPa and 0.0001265 kPa and 0.0001259 kPa
364.11 K | – | 0.0001563 kPa and 0.0001589 kPa and 0.0001556 kPa
366.17 K | – | 0.0001991 kPa and 0.0001966 kPa and 0.0001879 kPa
368.17 K | – | 0.0002397 kPa and 0.0002332 kPa and 0.0002247 kPa
370.13 K | – | 0.0002948 kPa and 0.0002986 kPa
372.18 K | – | 0.0003483 kPa and 0.0003696 kPa and 0.0003499 kPa
374.15 K | – | 0.0004435 kPa and 0.0004334 kPa and 0.0004198 kPa
376.13 K | – | 0.0005419 kPa and 0.000534 kPa and 0.0005297 kPa
378.17 K | – | 0.0006618 kPa and 0.000668 kPa and 0.0006232 kPa
380.16 K | – | 0.0007639 kPa and 0.0007696 kPa and 0.0007519 kPa

Nc1ccc2cn[nH]c2c1 [6-aminoindazole]
Details | mass density [kg/m3] | vapor or sublimation pressure
– | 1450 | –
366.14 K | – | 0.0001031 kPa and 0.0001023 kPa and 0.0001025 kPa
368.17 K | – | 0.0001275 kPa and 0.0001257 kPa and 0.0001221 kPa
370.18 K | – | 0.0001528 kPa and 0.0001513 kPa and 0.0001468 kPa
372.14 K | – | 0.0001919 kPa and 0.0001878 kPa and 0.0001923 kPa
374.16 K | – | 0.0002356 kPa and 0.000234 kPa and 0.0002228 kPa
376.17 K | – | 0.0002875 kPa and 0.0002739 kPa
378.15 K | – | 0.0003523 kPa and 0.0003592 kPa and 0.0003463 kPa
380.16 K | – | 0.0004332 kPa and 0.000428 kPa and 0.0004138 kPa
382.17 K | – | 0.0005244 kPa and 0.0005044 kPa and 0.0005114 kPa
384.15 K | – | 0.0006281 kPa and 0.0006132 kPa and 0.0006304 kPa
386.16 K | – | 0.0007813 kPa and 0.0007708 kPa and 0.0007396 kPa
388.17 K | – | 0.0009109 kPa and 0.0008984 kPa and 0.0008878 kPa

Reference: the NIST ThermoML archive (doi:10.1016/j.jct.2010.04.026)
